# Data published in ChEMBL document CHEMBL3044789, “Comparing weed and crop seedling response to pre-emergence pendimethalin application in Corchorus olitorius and Abelmoschus esculentus” (Crop Prot, 2006).
# Key:
# [1] = system: Corchorus olitorius; assay: Phytotoxicity in Corchorus olitorius assessed as seedling injury at 0.66 kg a.i/ha applied as solution after 7 weeks relative to control; assay type: organism-based; details: in vivo, other, 1176 h
# [2] = system: Commelina diffusa; assay: Herbicidal activity against Commelina diffusa in Abelmoschus esculentus plots assessed as weed cover at 0.66 kg a.i/ha after 7 weeks (reference value: 14.7 +/- 0.46 %); assay type: functional
# [3] = system: Abelmoschus esculentus; assay: Phytotoxicity in Abelmoschus esculentus assessed as shoot length at 0.66 kg a.i/ha treated to soil after 7 weeks (reference value: 8.5 +/- 0.34 mm); assay type: organism-based; details: in vivo, other, 1176 h
# [4] = system: Synedrella nodiflora; assay: Herbicidal activity against Synedrella nodiflora in Corchorus olitorius plots assessed as weed recovery at 1.32 kg a.i/ha after 2 weeks (reference value: 78.3 +/- 0.74 %); assay type: functional
# [5] = system: Talinum fruticosum; assay: Herbicidal activity against Talinum fruticosum in Corchorus olitorius plots assessed as weed cover at 0.99 kg a.i/ha after 2 weeks (reference value: 81.7 +/- 0.43 %); assay type: functional
# [6] = system: Calopogonium mucunoides; assay: Herbicidal activity against Calopogonium mucunoides in Corchorus olitorius plots assessed as major weed growth at 1.32 kg a.i/ha after 2 weeks; assay type: functional
# [7] = system: Abelmoschus esculentus; assay: Phytotoxicity in Abelmoschus esculentus assessed as root length at 0.33 kg a.i/ha treated to soil after 7 weeks (reference value: 2.9 +/- 0.45 mm); assay type: organism-based; details: in vivo, other, 1176 h
# [8] = system: Euphorbia heterophylla; assay: Herbicidal activity against Euphorbia heterophylla in Corchorus olitorius plots assessed as weed cover at 0.33 kg a.i/ha after 4 weeks (reference value: 20.1+/- 0.57 %); assay type: functional
# [9] = system: Chromolaena odorata; assay: Herbicidal activity against Chromolaena odorata in Corchorus olitorius plots assessed as minor weed growth at 1.32 kg a.i/ha after 2 weeks; assay type: functional
# [10] = system: Corchorus olitorius; assay: Phytotoxicity in Corchorus olitorius assessed as seedling emergence at 0.66 kg a.i/ha treated to soil after 7 weeks (reference value: 95 +/- 0.05 %); assay type: organism-based; details: in vivo, other, 1176 h
# [11] = system: Synedrella nodiflora; assay: Herbicidal activity against Synedrella nodiflora in Abelmoschus esculentus plots assessed as weed cover at 1.32 kg a.i/ha after 4 weeks (reference value: 22.6 +/- 0.49 %); assay type: functional
# [12] = system: Commelina diffusa; assay: Herbicidal activity against Commelina diffusa in Abelmoschus esculentus plots assessed as weed cover at 0.66 kg a.i/ha after 4 weeks (reference value: 22.6 +/- 0.49 %); assay type: functional
# [13] = system: Euphorbia heterophylla; assay: Herbicidal activity against Euphorbia heterophylla in Abelmoschus esculentus plots assessed as weed recovery at 0.33 kg a.i/ha after 2 weeks (reference value: 60.1 +/- 0.46 %); assay type: functional
# [14] = system: Rottboellia cochinchinensis; assay: Herbicidal activity against Rottboellia cochinchinensis in Corchorus olitorius plots assessed as weed recovery at 0.33 kg a.i/ha after 2 weeks (reference value: 78.3 +/- 0.74 %); assay type: functional
# [15] = system: Corchorus olitorius; assay: Phytotoxicity in Corchorus olitorius assessed as seed germination at 1.32 kg a.i/ha applied as solution after 7 weeks relative to untreated control; assay type: organism-based; details: in vivo, other, 1176 h
# [16] = system: Synedrella nodiflora; assay: Herbicidal activity against Synedrella nodiflora in Corchorus olitorius plots assessed as weed cover at 1.32 kg a.i/ha after 7 weeks (reference value: 1.7 +/- 0.56 %); assay type: functional
# [17] = system: Euphorbia heterophylla; assay: Herbicidal activity against Euphorbia heterophylla in Abelmoschus esculentus plots assessed as weed cover at 1.32 kg a.i/ha after 7 weeks (reference value: 14.7 +/- 0.46 %); assay type: functional
# [18] = system: Abelmoschus esculentus; assay: Phytotoxicity in Abelmoschus esculentus assessed as seedling emergence at 0.99 kg a.i/ha treated to soil after 7 weeks (reference value: 95 +/- 0.05 %); assay type: organism-based; details: in vivo, other, 1176 h
# [19] = system: Calopogonium mucunoides; assay: Herbicidal activity against Calopogonium mucunoides in Abelmoschus esculentus plots assessed as weed cover at 0.33 kg a.i/ha after 7 weeks (reference value: 14.7 +/- 0.46 %); assay type: functional
# [20] = system: Cyperus rotundus; assay: Herbicidal activity against Cyperus rotundus in Corchorus olitorius plots assessed as weed cover at 0.66 kg a.i/ha after 4 weeks (reference value: 20.1+/- 0.57 %); assay type: functional
# [21] = system: Talinum fruticosum; assay: Herbicidal activity against Talinum fruticosum in Abelmoschus esculentus plots assessed as minor weed growth at 0.99 kg a.i/ha after 2 weeks; assay type: functional
# [22] = system: Corchorus olitorius; assay: Phytotoxicity in Corchorus olitorius assessed as seedling injury at 0.33 kg a.i/ha applied as solution after 7 weeks relative to control; assay type: organism-based; details: in vivo, other, 1176 h
# [23] = system: Calopogonium mucunoides; assay: Herbicidal activity against Calopogonium mucunoides in Corchorus olitorius plots assessed as weed cover at 0.33 kg a.i/ha after 4 weeks (reference value: 20.1+/- 0.57 %); assay type: functional
# [24] = system: Corchorus olitorius; assay: Phytotoxicity in Corchorus olitorius assessed as seed germination at 0.66 kg a.i/ha applied as solution after 7 weeks relative to untreated control; assay type: organism-based; details: in vivo, other, 1176 h
# [25] = system: Synedrella nodiflora; assay: Herbicidal activity against Synedrella nodiflora in Corchorus olitorius plots assessed as weed cover at 1.32 kg a.i/ha after 4 weeks (reference value: 20.1+/- 0.57 %); assay type: functional
# [26] = system: Talinum fruticosum; assay: Herbicidal activity against Talinum fruticosum in Abelmoschus esculentus plots assessed as weed cover at 0.99 kg a.i/ha after 2 weeks (reference value: 63.5 +/- 0.29 %); assay type: functional
# [27] = system: Calopogonium mucunoides; assay: Herbicidal activity against Calopogonium mucunoides in Abelmoschus esculentus plots assessed as major weed growth at 1.32 kg a.i/ha after 2 weeks; assay type: functional
# [28] = system: Ageratum conyzoides; assay: Herbicidal activity against Ageratum conyzoides in Corchorus olitorius plots assessed as weed recovery at 0.33 kg a.i/ha after 2 weeks (reference value: 78.3 +/- 0.74 %); assay type: functional
# [29] = system: Calopogonium mucunoides; assay: Herbicidal activity against Calopogonium mucunoides in Corchorus olitorius plots assessed as weed cover at 0.66 kg a.i/ha after 7 weeks (reference value: 1.7 +/- 0.56 %); assay type: functional
# [30] = system: Cyperus rotundus; assay: Herbicidal activity against Cyperus rotundus in Corchorus olitorius plots assessed as weed cover at 0.66 kg a.i/ha after 7 weeks (reference value: 1.7 +/- 0.56 %); assay type: functional
# [31] = system: Synedrella nodiflora; assay: Herbicidal activity against Synedrella nodiflora in Abelmoschus esculentus plots assessed as weed recovery at 1.32 kg a.i/ha after 2 weeks (reference value: 60.1 +/- 0.46 %); assay type: functional
# [32] = system: Calopogonium mucunoides; assay: Herbicidal activity against Calopogonium mucunoides in Abelmoschus esculentus plots assessed as weed cover at 0.99 kg a.i/ha after 7 weeks (reference value: 14.7 +/- 0.46 %); assay type: functional
# [33] = system: Abelmoschus esculentus; assay: Phytotoxicity in Abelmoschus esculentus assessed as root length at 0.99 kg a.i/ha treated to soil after 7 weeks (reference value: 2.9 +/- 0.45 mm); assay type: organism-based; details: in vivo, other, 1176 h
# [34] = system: Chromolaena odorata; assay: Herbicidal activity against Chromolaena odorata in Corchorus olitorius plots assessed as major weed growth at 0.33 kg a.i/ha after 2 weeks; assay type: functional
# [35] = system: Calopogonium mucunoides; assay: Herbicidal activity against Calopogonium mucunoides in Abelmoschus esculentus plots assessed as weed cover at 0.66 kg a.i/ha after 2 weeks (reference value: 63.5 +/- 0.29 %); assay type: functional
# [36] = system: Chromolaena odorata; assay: Herbicidal activity against Chromolaena odorata in Corchorus olitorius plots assessed as weed cover at 1.32 kg a.i/ha after 7 weeks (reference value: 1.7 +/- 0.56 %); assay type: functional
# [37] = system: Euphorbia heterophylla; assay: Herbicidal activity against Euphorbia heterophylla in Corchorus olitorius plots assessed as weed cover at 0.99 kg a.i/ha after 2 weeks (reference value: 81.7 +/- 0.43 %); assay type: functional
structure (smiles),measurement,setting,value
CCC(CC)Nc1c([N+](=O)[O-])cc(C)c(C)c1[N+](=O)[O-] [PENDIMETHALIN],Activity,[1],31.7%
same,Activity,[2],90%
same,Activity,[3],5.8 mm
same,Activity,[4],13.3%
same,Activity,[5],51.7%
same,Activity,[6],31 /m2
same,Activity,[7],3 mm
same,Activity,[8],73.3%
same,Activity,[9],1 /m2
same,Activity,[10],83.3%
same,Activity,[11],36.2%
same,Activity,[12],47.9%
same,Activity,[13],39.2%
same,Activity,[14],31.7%
same,Activity,[15],68.3%
same,Activity,[16],95%
same,Activity,[17],82.4%
same,Activity,[18],85%
same,Activity,[19],90%
same,Activity,[20],63.3%
same,Activity,[21],1 /m2
same,Activity,[22],18.3%
same,Activity,[23],73.3%
same,Activity,[24],84.7%
same,Activity,[25],33.3%
same,Activity,[26],47.9%
same,Activity,[27],31 /m2
same,Activity,[28],31.7%
same,Activity,[29],100%
same,Activity,[30],100%
same,Activity,[31],33.2%
same,Activity,[32],83.9%
same,Activity,[33],1.1 mm
same,Activity,[34],31 /m2
same,Activity,[35],50.8%
same,Activity,[36],95%
same,Activity,[37],51.7%
